ChEMBL document CHEMBL1949598, “Synthesis, cytostatic activity and ADME properties of C-5 substituted and N-acyclic pyrimidine derivatives” (Bioorg Med Chem Lett, 2012)
The source made the active and inactive calls. No cut-off for these calls is given here.

Assays:
[1] = test system: MCF7; assay: Cytotoxicity against human MCF7 cells up to 100 uM after 72 hrs by MTT assay; type: functional, cell-based
[2] = test system: HCT-116; assay: Cytotoxicity against human HCT116 cells up to 100 uM after 72 hrs by MTT assay; type: functional, cell-based
[3] = test system: NCI-H460; assay: Cytotoxicity against human H460 cells up to 100 uM after 72 hrs by MTT assay; type: functional, cell-based
[4] = test system: NCI-H460; assay: Cytotoxicity against human H460 cells after 72 hrs by MTT assay; type: functional, cell-based; settings: NCI-H460, 72 h
[5] = test system: MCF7; assay: cells; settings: Homo sapiens, MCF7, 72 h
Description: Cytotoxicity against human MCF7 cells after 72 hrs by MTT assay

[6] = test system: HCT-116; assay: cells; settings: Homo sapiens, HCT-116, 72 h
[7] = test system: MDR1 (P-gp), human; assay: Apparent permeability from apical to basolateral side in MDCK2 cells expressing human MDR1 at 10 uM after 60 mins; type: ADME, cell-based, Canis lupus familiaris, MDCK-II; settings: dog, MDCK-MDR1
[8] = test system: MDR1 (P-gp), human; assay: Apparent permeability from basolateral to apical side in MDCK2 cells expressing human MDR1 at 10 uM after 60 mins; type: ADME, cell-based, Canis lupus familiaris, MDCK-II; settings: dog, MDCK-MDR1
[9] = test system: MDR1 (P-gp), human; assay: Efflux ratio of apparent permeability from apical to basolateral over basolateral to apical side of MDCK2 cells expressing human MDR1 gene; type: ADME, cell-based, Canis lupus familiaris, MDCK-II; settings: dog, MDCK-MDR1
[10] = (§1) Efflux ratio of apparent permeability from apical to basolateral side over basolateral to apical side in MDCK2 cells expressing human MDR1 in presence of P-gp inhibitor elacridar; type: ADME, cell-based, Canis lupus familiaris, MDCK-II; settings: dog, mdck-ii
[11] = Metabolic stability in human plasma assessed as compound remaining at 5 uM after 24 hrs by LC/MS/MS analysis; type: ADME, cell-free; settings: read-out: Stability
[12] = Metabolic stability in rat plasma assessed as compound remaining at 5 uM after 24 hrs by LC/MS/MS analysis; type: ADME, cell-free; settings: read-out: Stability
[13] = Metabolic stability in mouse plasma assessed as compound remaining at 5 uM after 24 hrs by LC/MS/MS analysis; type: ADME, cell-free; settings: read-out: Stability
[14] = Half life in human plasma at 5 uM; type: ADME
[15] = Half life in rat plasma at 5 uM; type: ADME
[16] = Half life in mouse plasma at 5 uM; type: ADME
[17] = Metabolic stability in human liver microsomes assessed as compound remaining at 1 uM after 60 mins by LC/MS/MS analysis; type: ADME, Microsome; settings: read-out: Stability
[18] = Metabolic stability in rat liver microsomes assessed as compound remaining at 1 uM after 60 mins by LC/MS/MS analysis; type: ADME, Microsome; settings: read-out: Stability
[19] = Metabolic stability in mouse liver microsomes assessed as compound remaining at 1 uM after 60 mins by LC/MS/MS analysis; type: ADME, Microsome; settings: read-out: Stability
[20] = Half life in rat liver microsomes at 1 uM
[21] = Half life in human liver microsomes at 1 uM
[22] = Half life in mouse liver microsomes at 1 uM
[23] = test system: HCT-116; assay: Cell cycle arrest in human HCT116 cells assessed as accumulation of cells at sub-G1 phase at 1 uM after 24 hrs using propidium iodide staining by FACS analysis (reference value: 1.8%); type: functional
[24] = test system: HCT-116; assay: Cell cycle arrest in human HCT116 cells assessed as accumulation of cells at sub-G1 phase at 5 uM after 24 hrs using propidium iodide staining by FACS analysis (reference value: 1.8%); type: functional
[25] = test system: HCT-116; assay: Cell cycle arrest in human HCT116 cells assessed as accumulation of cells at G1 phase at 1 uM after 24 hrs using propidium iodide staining by FACS analysis (reference value: 32.5%); type: functional
[26] = test system: HCT-116; assay: Cell cycle arrest in human HCT116 cells assessed as accumulation of cells at G1 phase at 5 uM after 24 hrs using propidium iodide staining by FACS analysis (reference value: 32.5%); type: functional
[27] = test system: HCT-116; assay: Cell cycle arrest in human HCT116 cells assessed as accumulation of cells at S phase at 1 uM after 24 hrs using propidium iodide staining by FACS analysis (reference value: 50%); type: functional
[28] = test system: HCT-116; assay: Cell cycle arrest in human HCT116 cells assessed as accumulation of cells at S phase at 5 uM after 24 hrs using propidium iodide staining by FACS analysis (reference value: 50%); type: functional
[29] = test system: HCT-116; assay: Cell cycle arrest in human HCT116 cells assessed as accumulation of cells at G2/M phase at 1 uM after 24 hrs using propidium iodide staining by FACS analysis (reference value: 17.4%); type: functional
[30] = test system: HCT-116; assay: Cell cycle arrest in human HCT116 cells assessed as accumulation of cells at G2/M phase at 5 uM after 24 hrs using propidium iodide staining by FACS analysis (reference value: 17.4%); type: functional
[31] = test system: HCT-116; assay: Cell cycle arrest in human HCT116 cells assessed as accumulation of cells at sub-G1 phase at 1 uM after 48 hrs using propidium iodide staining by FACS analysis (reference value: 1.5%); type: functional
[32] = test system: HCT-116; assay: Cell cycle arrest in human HCT116 cells assessed as accumulation of cells at sub-G1 phase at 5 uM after 48 hrs using propidium iodide staining by FACS analysis (reference value: 1.5%); type: functional
[33] = test system: HCT-116; assay: Cell cycle arrest in human HCT116 cells assessed as accumulation of cells at G1 phase at 1 uM after 48 hrs using propidium iodide staining by FACS analysis (reference value: 42.3%); type: functional
[34] = test system: HCT-116; assay: Cell cycle arrest in human HCT116 cells assessed as accumulation of cells at G1 phase at 5 uM after 48 hrs using propidium iodide staining by FACS analysis (reference value: 42.3%); type: functional
[35] = test system: HCT-116; assay: Cell cycle arrest in human HCT116 cells assessed as accumulation of cells at S phase at 1 uM after 48 hrs using propidium iodide staining by FACS analysis (reference value: 31%); type: functional
[36] = test system: HCT-116; assay: Cell cycle arrest in human HCT116 cells assessed as accumulation of cells at S phase at 5 uM after 48 hrs using propidium iodide staining by FACS analysis (reference value: 31%); type: functional
[37] = test system: HCT-116; assay: Cell cycle arrest in human HCT116 cells assessed as accumulation of cells at G2/M phase at 1 uM after 48 hrs using propidium iodide staining by FACS analysis (reference value: 26.6%); type: functional
[38] = test system: HCT-116; assay: Cell cycle arrest in human HCT116 cells assessed as accumulation of cells at G2/M phase at 5 uM after 48 hrs using propidium iodide staining by FACS analysis (reference value: 26.6%); type: functional
[39] = test system: MDR1 (P-gp), human; assay: as §1; type: ADME, cell-based, Canis lupus familiaris, MDCK-II; settings: dog, MDCK-MDR1, with elacridar (P-gp inhibitor; concentration not stated)

COCn1cc(CCOC(C)=O)c(=O)[nH]c1=O
growth inhibition (GI) [1]: inactive | growth inhibition (GI) [2]: inactive | growth inhibition (GI) [3]: inactive

COCOCCc1cnc(OC)nc1OC
growth inhibition (GI) [1]: Active | growth inhibition (GI) [2]: Active | growth inhibition (GI) [3]: Active | IC50 [4]: > 100 µM | IC50 [5]: > 100 µM | IC50 [6]: 75 µM

COc1ncc2c(n1)OCC2
growth inhibition (GI) [1]: inactive | growth inhibition (GI) [2]: inactive | growth inhibition (GI) [3]: inactive

COCn1c(=O)[nH]cc(CCO)c1=O
growth inhibition (GI) [1]: inactive | growth inhibition (GI) [2]: inactive | growth inhibition (GI) [3]: inactive

COCn1c(=O)[nH]cc(CCOC(C)=O)c1=O
growth inhibition (GI) [1]: inactive | growth inhibition (GI) [2]: inactive | growth inhibition (GI) [3]: inactive

CC(=O)OCCc1c[nH]c(=O)[nH]c1=O
growth inhibition (GI) [1]: inactive | growth inhibition (GI) [2]: inactive | growth inhibition (GI) [3]: inactive

COCn1cc(CCO)c(OC)nc1=O
growth inhibition (GI) [1]: inactive | growth inhibition (GI) [2]: inactive | growth inhibition (GI) [3]: inactive

OCCc1cnc(Cl)nc1Cl
growth inhibition (GI) [1]: inactive | growth inhibition (GI) [2]: inactive | growth inhibition (GI) [3]: inactive

COc1ncc(CCO)c(OC)n1
growth inhibition (GI) [1]: inactive | growth inhibition (GI) [2]: inactive | growth inhibition (GI) [3]: inactive

Clc1ncc2c(n1)OCC2
growth inhibition (GI) [1]: Active | growth inhibition (GI) [2]: Active | growth inhibition (GI) [3]: Active | IC50 [4]: 22 µM | IC50 [5]: 45 µM | IC50 [6]: 13 µM

COCn1cc(CCF)c(=O)[nH]c1=O
growth inhibition (GI) [1]: inactive | growth inhibition (GI) [2]: inactive | growth inhibition (GI) [3]: inactive

Cc1nc(Cl)nc(Cl)c1CCCl
Papp A→B at 1 h, 10 µM [7]: 35.8 ×10⁻⁶ cm/s | Papp B→A at 1 h, 10 µM [8]: 20.9 ×10⁻⁶ cm/s | efflux ratio [9]: 0.6 | Ratio [10]: 1.4 | remaining at 24 h, 5 µM [11]: 20% | remaining at 24 h, 5 µM [12]: 3% | remaining at 24 h, 5 µM [13]: 22% | half-life at 5 µM [14]: 10 h | half-life at 5 µM [15]: 3.07 h | half-life at 5 µM [16]: 7.97 h | remaining at 1 h, 1 µM [17]: 76% | remaining at 1 h, 1 µM [18]: 74% | remaining at 1 h, 1 µM [19]: 41% | half-life at 1 µM [20]: 2.23 h | half-life at 1 µM [21]: 2.42 h | half-life at 1 µM [22]: 0.767 h

COCn1cc(CCOC(C)=O)c(=O)n(COC)c1=O
growth inhibition (GI) [1]: inactive | growth inhibition (GI) [2]: inactive | growth inhibition (GI) [3]: inactive

O=c1[nH]cc(F)c(=O)[nH]1 [FLUOROURACIL]
IC50 [4]: 3 µM | IC50 [5]: 14 µM

COCOCCc1cn(COC)c(=O)nc1OC
growth inhibition (GI) [1]: inactive | growth inhibition (GI) [2]: inactive | growth inhibition (GI) [3]: inactive

COCn1cc(CCO)c(=O)[nH]c1=O
growth inhibition (GI) [1]: inactive | growth inhibition (GI) [2]: inactive | growth inhibition (GI) [3]: inactive

ClCCc1cnc(Cl)nc1Cl
IC50 [4]: 3 µM | Activity [23]: 2.5% | Activity [24]: 8.1% | Activity [25]: 33.5% | Activity [26]: 7.8% | Activity [27]: 48.8% | Activity [28]: 14.6% | Activity [29]: 17.2% | Activity [30]: 77.6% | Activity [31]: 1.7% | Activity [32]: 8.5% | Activity [33]: 41.7% | Activity [34]: 24.6% | Activity [35]: 31.5% | Activity [36]: 14.8% | Activity [37]: 26.7% | Activity [38]: 60.7% | Papp A→B at 1 h, 10 µM [7]: 20.8 ×10⁻⁶ cm/s | Papp B→A at 1 h, 10 µM [8]: 25.8 ×10⁻⁶ cm/s | efflux ratio [9]: 1.2 | efflux ratio [39]: 1.2 | remaining at 24 h, 5 µM [11]: 0% | remaining at 24 h, 5 µM [12]: 0% | remaining at 24 h, 5 µM [13]: 0% | half-life at 5 µM [14]: 2.55 h | half-life at 5 µM [15]: 0.4 h | half-life at 5 µM [16]: 1.52 h | remaining at 1 h, 1 µM [17]: 65% | remaining at 1 h, 1 µM [18]: 73% | remaining at 1 h, 1 µM [19]: 33% | IC50 [5]: 10 µM | IC50 [6]: 0.8 µM | half-life at 1 µM [20]: 2.23 h | half-life at 1 µM [21]: 1.73 h | half-life at 1 µM [22]: 0.567 h

COc1nc(Cl)ncc1CCF
growth inhibition (GI) [1]: inactive | growth inhibition (GI) [2]: inactive | growth inhibition (GI) [3]: inactive

COCn1cc(CCO)c(=O)n(COC)c1=O
growth inhibition (GI) [1]: inactive | growth inhibition (GI) [2]: inactive | growth inhibition (GI) [3]: inactive

CC(=O)OCCc1cnc(Cl)nc1Cl
growth inhibition (GI) [1]: Active | growth inhibition (GI) [2]: Active | growth inhibition (GI) [3]: Active | IC50 [4]: 31 µM | IC50 [5]: 30 µM | IC50 [6]: 29 µM

COc1nc(Cl)ncc1CCO
growth inhibition (GI) [1]: inactive | growth inhibition (GI) [2]: inactive | growth inhibition (GI) [3]: inactive
